Broadly, the IC50 is the concentration that gives 50% inhibition. Low values mean higher potency, high ones lower potency. As usually defined, the IC90 is the point of the concentration-response curve where the effect stands at 90%.

Consider one compound from US6958345B2, “2-hydroxymethylcyclopropylidene methylpurines and -pyrimidines as antiviral agents” (The Regents of the University of Michigan, priority 1997, dated 2005).

One data set deals with KB cells. The data set is described as follows: Cytotoxicity in KB cells, growth over two population doublings. The class given is cell-based. As to the method: (§1) Cells and viruses. The routine growth and passage of KB cells was performed in monolayer cultures using minimal essential medium (MEM) with either Hanks salts [MEM(H)] or Earle salts [MEM(E)] supplemented with 10% calf serum. The sodium bicarbonate concentration was varied to meet the buffering capacity required. Cultures of diploid human foreskin fibroblasts (HFF) or MRC-5 cells were grown in medium consisting of MEM(E) with 10% fetal bovine serum. Cells were passaged at 1:2 to 1:10 dilutions according to conventional procedures by using 0.05% trypsin plus 0.02% EDTA in a HEPES buffered salt solution (HBS) (Shipman, C., Jr., Proc. Soc. Exp. Biol. 130:305-310 (1969)) as described previously. Turk, S. R., et al., Antimicrob. Agents Chemother. 31:544-550 (1987). HFF and MRC-5 cells were passaged only at 1:2 dilutions. CEM cells were maintained in suspension culture as detailed previously. Kucera, L. S., et al., AIDS Res. Human Retroviruses 9:307-314 (1993).
(§2) Cytotoxicity assays. Two different assays were used to explore cytotoxicity of selected compounds as we have detailed previously. (i) Cytotoxicity produced in stationary HFF cells and in growing CEM cells was determined by microscopic inspection of cells used in plaque and RT assays which were not affected by the virus. Turk, S. R., et al., Antimicrob. Agents Chemother. 31:544-550 (1987). (ii) The effect of compounds during two population doublings of KB cells was determined by crystal violet staining and spectrophotometric quantitation of dye eluted from stained cells. Prichard, M. N., et al., Antimicrob. Agents Chemother. 35:1060-1065 (1991).
(§3) Data Analysis. Dose-response relationships were constructed by linearly regressing the percent inhibition of parameters derived in the preceding sections against log drug concentrations. Fifty-percent inhibitory (IC50) concentrations were calculated from the regression lines. Samples containing positive controls (acyclovir for HSV-1, ganciclovir for HCMV, and 2-acetylpyridine thiosemicarbazone for cytotoxicity) were used in all assays.

A further data set concerns CEM cells. The data set can be described thus: Cytotoxicity in growing CEM cells, microscopic inspection. The class given is cell-based. As to the method: as §1, §2, §3
The test system of data set [1] is murine cytomegalovirus (MCMV). The data set can be described thus: Mortality of mice infected with murine cytomegalovirus. It counts as in vivo. The method, then:
(§4) Compounds 1 (B=adenin-N^9-yl and guanin-N^9-yl) were evaluated in mice infected with murine cytomegalovirus (MCMV). Mice were infected intraperitonealy with sufficient MCMV to produce 90 to 100% mortality. Compounds were administered once daily for five days at doses of 5.6, 16.7 and 50 mg/kg by intraperitoneal injection in a 0.4% suspension of carboxymethylcellulose. Ganciclovir was administered in sterile water at the same doses as a positive control drug. All compounds were administered to separate groups of 15 mice each at 6, 24, and 48 hours after infection with MCMV. Groups of 10 uninfected mice also received test compounds as toxicity controls at the doses listed above.

Data set [2] in a line: Toxicity controls: uninfected mice given test compound. It counts as in vivo. As to conditions: 5.6, 16.7 and 50 mg/kg i.p. once daily for five days. As to the method:
as §4

Data set [3] deals with HCMV. The data set is described as follows: HCMV yield reduction assay in HFF cells. The class given is cell-based, Human CMV (HCMV). Particulars: footnote says IC90. The method, then:
(§5) Virological procedures. Stock HCMV was prepared by infecting HFF cells at a multiplicity of infection (m.o.i.) of <0.01 plaque-forming units (p.f.u.) per cell. Cell growth medium was changed every four days until cytopathology was evident in all cells (approximately 21 days). Supernatant fluids were retained as the virus stock. High titer HSV-1 stocks were prepared by infecting KB cells at an m.o.i. of <0.1 as detailed previously. Turk, S. R., et al., Antimicrob. Agents Chemother. 31:544-550 (1987). Virus titers were determined using monolayer cultures of HFF cells for HCMV and monolayer cultures of BSC-1 cells for HSV-1 as described earlier. Prichard, M. N., et al., J. Virol. Methods 28:101-106 (1990). Briefly, HFF or BSC-1 cells were planted as described above in 96-well cluster dishes and incubated overnight at 37° C. in a humidified 3% CO297% air atmosphere. The next day cultures were inoculated with HCMV or HSV-1 and serially diluted 1:3 across the remaining eleven columns of the 96-well plate. Cultures were incubated at 37° C. for 2 hr to permit virus adsorption and then virus inoculum was replaced with 0.2 mL of fresh medium. Cultures were incubated for seven days for HCMV, two or three days for HSV-1, medium was removed, and the cell sheets were stained with 0.1% crystal violet in 20% methanol. Plaques were enumerated under 20-fold magnification in wells having the dilution which gave 5 to 20 plaques per well. Virus titers were calculated according to the following Formula: Titer (p.f.u./mL)=number of plaques×5×3^n; where n represents the nth dilution of the virus used to infect the well in which plaques were enumerated.
The effect of compounds on the replication of HCMV also was measured using a yield reduction assay. HFF cells were planted as described above in 96-well cluster dishes, incubated overnight, medium removed and the cultures were inoculated with HCMV at a m.o.i. of 0.5 to 1 p.f.u. per cell as reported elsewhere. After virus adsorption, inoculum was replaced with 0.2 mL of fresh medium containing test compounds. The first row of 12 wells was left undisturbed and served as virus controls. Each well in the second row received an additional 0.1 mL of medium with test compound at three times the desired final concentration. The contents of the 12 wells were mixed by repeated pipetting and then serially diluted 1:3 along the remaining wells. In this manner, six compounds could be tested in duplicate on a single plate with concentrations from 100 μM to 0.14 μM. Plates were incubated at 37° C. for seven days, subjected to one cycle of freezing and thawing; aliquots from each of the eight wells of a given column were transferred to the first column of a fresh 96-well monolayer culture of HFF cells. Contents were mixed and serially diluted 1:3 across the remaining eleven columns of the secondary plate. Each column of the original primary plate was diluted across a separate plate in this manner. Cultures were incubated, plaques were enumerated, and titers calculated as described above.
as §3

Data set [4] concerns HCMV. The data set is described as follows: HCMV plaque reduction assay in HFF cells. The class given is cell-based, Human CMV (HCMV). As to conditions: HFF cells; plaque reduction. As to the method: as §1, §5
(a) HCMV. The effect of compounds on the replication of HCMV has been measured using a plaque reduction assay. HFF cells in 24-well cluster dishes were infected with approximately 100 p.f.u. of HCMV per cm^2 cell sheet using the procedures detailed above. Following virus adsorption, compounds dissolved in growth medium were added to duplicate wells in three to six selected concentrations. Following incubation at 37° C. for 7 to 10 days, cell sheets were fixed, stained with crystal violet and microscopic plaques enumerated as described above. Drug effects were calculated as a percentage of reduction in number of plaques in the presence of each drug concentration compared to the number observed in the absence of drug. Ganciclovir (DHPG) was used as a positive control in all experiments.
as §3
(In general: In a plaque reduction assay, fewer plaques than in the control indicate reduced infectivity or spread.)

The test system of a further data set is HFF cells. The data set is described as follows: Cytotoxicity in stationary HFF cells, microscopic inspection. The class given is cell-based, human. As to the method: as §1, §2, §3

With `Nc1ncnc2c1ncn2C=C1CC1CO` (stereo not drawn) [1 (B = adenine), Example 5, syn-N^9-(2-hydroxymethylcyclopropylidenemethyl)adenine], the half-inhibitory concentration (IC50) in the data set with KB cells is 82 µM; with CEM cells, more than 100 µM; in the data set with HCMV [4], 2 µM; in the data set with HFF cells, more than 100 µM. Also, in data set [1] (50 mg/kg i.p. once daily for five days, placebo 100%), the “mortality of MCMV-infected mice” value was determined as 33%. Further, the “effect on mortality at lower doses or delayed administration” value in data set [1] (lower doses, administration delayed until 24 or 48 hours after infection) was “Decreasing effects”. In addition, the “deaths in uninfected mice that received only drug” value in data set [2] is “No deaths were observed”. In the data set with HCMV [3], this compound registered an IC90 of 1.5 µM.
